# Where two headings read alike, the source gives them in different places.
# [1] = DL3 800 mg twice daily × 3 + sLV5FU2, Any cycle, n = 3
# [2] = DL3 1,000 mg once daily × 3 + sLV5FU2, 1st cycle, n = 3
# [3] = DL3 1,000 mg once daily × 3 + sLV5FU2, Any cycle, n = 3
# [4] = DL4 1,200 mg once daily × 3 + sLV5FU2, 1st cycle, n = 3
# [5] = DL4 1,200 mg once daily × 3 + sLV5FU2, Any cycle, n = 3
# [6] = DL5 1,400 mg once daily × 3 + sLV5FU2, 1st cycle, n = 3
# [7] = DL5 1,400 mg once daily × 3 + sLV5FU2, Any cycle, n = 3
# [8] = DL6 1,700 mg once daily × 3 + sLV5FU2, 1st cycle, n = 6
# [9] = DL6 1,700 mg once daily × 3 + sLV5FU2, Any cycle, n = 6
# [10] = DL7 2,000 mg once daily × 3 + sLV5FU2, 1st cycle, n = 3
# [11] = DL7 2,000 mg once daily × 3 + sLV5FU2, Any cycle, n = 3
structure (smiles),measurement,setting,value
"O=C(CCCCCCC(=O)Nc1ccccc1)NO [vorinostat, suberoylanilide hydroxamic acid]","Nausea, treatment-related, patients (G2/G3/G4)",[1],0/0/0
same,"Neutropenia, treatment-related, patients (G2/G3/G4)",[1],2/0/0
same,"Thrombocytopenia, treatment-related, patients (G2/G3/G4)",[1],2/1/0
same,"VTE, treatment-related, patients (G2/G3/G4)",[1],0/0/1
same,"Vomiting, treatment-related, patients (G2/G3/G4)",[1],0/0/0
same,"Anemia, treatment-related, patients (G2/G3/G4)",[2],1/0/0
same,"Anorexia, treatment-related, patients (G2/G3/G4)",[2],0/0/0
same,"DVT/PE, treatment-related, patients (G2/G3/G4)",[2],0/0/0
same,"Dehydration, treatment-related, patients (G2/G3/G4)",[2],0/0/0
same,"Diarrhea, treatment-related, patients (G2/G3/G4)",[2],0/0/0
same,"Fatigue, treatment-related, patients (G2/G3/G4)",[2],1/0/0
same,"GI bleed, treatment-related, patients (G2/G3/G4)",[2],0/0/0
same,"Hand and Foot, treatment-related, patients (G2/G3/G4)",[2],0/0/0
same,"Infection, treatment-related, patients (G2/G3/G4)",[2],0/0/0
same,"Mucositis, treatment-related, patients (G2/G3/G4)",[2],0/0/0
same,"Nausea, treatment-related, patients (G2/G3/G4)",[2],0/0/0
same,"Neutropenia, treatment-related, patients (G2/G3/G4)",[2],0/0/0
same,"Thrombocytopenia, treatment-related, patients (G2/G3/G4)",[2],0/0/0
same,"Vomiting, treatment-related, patients (G2/G3/G4)",[2],0/0/0
same,"Weight Loss, treatment-related, patients (G2/G3/G4)",[2],0/0/0
same,"Anemia, treatment-related, patients (G2/G3/G4)",[3],1/0/0
same,"Anorexia, treatment-related, patients (G2/G3/G4)",[3],0/0/0
same,"DVT/PE, treatment-related, patients (G2/G3/G4)",[3],0/0/0
same,"Dehydration, treatment-related, patients (G2/G3/G4)",[3],0/0/0
same,"Diarrhea, treatment-related, patients (G2/G3/G4)",[3],0/0/0
same,"Fatigue, treatment-related, patients (G2/G3/G4)",[3],2/0/0
same,"GI bleed, treatment-related, patients (G2/G3/G4)",[3],0/0/0
same,"Hand and Foot, treatment-related, patients (G2/G3/G4)",[3],0/0/0
same,"Infection, treatment-related, patients (G2/G3/G4)",[3],0/0/0
same,"Mucositis, treatment-related, patients (G2/G3/G4)",[3],1/0/0
same,"Nausea, treatment-related, patients (G2/G3/G4)",[3],0/0/0
same,"Neutropenia, treatment-related, patients (G2/G3/G4)",[3],0/0/0
same,"Thrombocytopenia, treatment-related, patients (G2/G3/G4)",[3],0/0/0
same,"Vomiting, treatment-related, patients (G2/G3/G4)",[3],0/0/0
same,"Weight Loss, treatment-related, patients (G2/G3/G4)",[3],0/0/0
same,"Anemia, treatment-related, patients (G2/G3/G4)",[4],0/0/0
same,"Anorexia, treatment-related, patients (G2/G3/G4)",[4],0/0/0
same,"DVT/PE, treatment-related, patients (G2/G3/G4)",[4],0/0/0
same,"Dehydration, treatment-related, patients (G2/G3/G4)",[4],0/0/0
same,"Diarrhea, treatment-related, patients (G2/G3/G4)",[4],0/0/0
same,"Fatigue, treatment-related, patients (G2/G3/G4)",[4],2/0/0
same,"GI bleed, treatment-related, patients (G2/G3/G4)",[4],0/0/0
same,"Hand and Foot, treatment-related, patients (G2/G3/G4)",[4],0/0/0
same,"Infection, treatment-related, patients (G2/G3/G4)",[4],0/0/0
same,"Mucositis, treatment-related, patients (G2/G3/G4)",[4],0/0/0
same,"Nausea, treatment-related, patients (G2/G3/G4)",[4],0/0/0
same,"Neutropenia, treatment-related, patients (G2/G3/G4)",[4],0/0/0
same,"Thrombocytopenia, treatment-related, patients (G2/G3/G4)",[4],0/0/0
same,"Vomiting, treatment-related, patients (G2/G3/G4)",[4],1/0/0
same,"Weight Loss, treatment-related, patients (G2/G3/G4)",[4],0/0/0
same,"Anemia, treatment-related, patients (G2/G3/G4)",[5],0/0/0
same,"Anorexia, treatment-related, patients (G2/G3/G4)",[5],1/0/0
same,"DVT/PE, treatment-related, patients (G2/G3/G4)",[5],0/1/0
same,"Dehydration, treatment-related, patients (G2/G3/G4)",[5],0/0/0
same,"Diarrhea, treatment-related, patients (G2/G3/G4)",[5],0/1/0
same,"Fatigue, treatment-related, patients (G2/G3/G4)",[5],2/0/0
same,"GI bleed, treatment-related, patients (G2/G3/G4)",[5],0/0/0
same,"Hand and Foot, treatment-related, patients (G2/G3/G4)",[5],0/0/0
same,"Infection, treatment-related, patients (G2/G3/G4)",[5],0/0/0
same,"Mucositis, treatment-related, patients (G2/G3/G4)",[5],0/0/0
same,"Nausea, treatment-related, patients (G2/G3/G4)",[5],1/0/0
same,"Neutropenia, treatment-related, patients (G2/G3/G4)",[5],0/0/0
same,"Thrombocytopenia, treatment-related, patients (G2/G3/G4)",[5],0/0/0
same,"Vomiting, treatment-related, patients (G2/G3/G4)",[5],2/0/0
same,"Weight Loss, treatment-related, patients (G2/G3/G4)",[5],1/0/0
same,"Anemia, treatment-related, patients (G2/G3/G4)",[6],0/0/0
same,"Anorexia, treatment-related, patients (G2/G3/G4)",[6],0/0/0
same,"DVT/PE, treatment-related, patients (G2/G3/G4)",[6],0/0/0
same,"Dehydration, treatment-related, patients (G2/G3/G4)",[6],0/0/0
same,"Diarrhea, treatment-related, patients (G2/G3/G4)",[6],0/0/0
same,"Fatigue, treatment-related, patients (G2/G3/G4)",[6],0/0/0
same,"GI bleed, treatment-related, patients (G2/G3/G4)",[6],0/0/0
same,"Hand and Foot, treatment-related, patients (G2/G3/G4)",[6],0/0/0
same,"Infection, treatment-related, patients (G2/G3/G4)",[6],0/0/0
same,"Mucositis, treatment-related, patients (G2/G3/G4)",[6],0/0/0
same,"Nausea, treatment-related, patients (G2/G3/G4)",[6],0/0/0
same,"Neutropenia, treatment-related, patients (G2/G3/G4)",[6],1/0/0
same,"Thrombocytopenia, treatment-related, patients (G2/G3/G4)",[6],0/0/0
same,"Vomiting, treatment-related, patients (G2/G3/G4)",[6],0/0/0
same,"Weight Loss, treatment-related, patients (G2/G3/G4)",[6],0/0/0
same,"Anemia, treatment-related, patients (G2/G3/G4)",[7],1/0/0
same,"Anorexia, treatment-related, patients (G2/G3/G4)",[7],1/0/0
same,"DVT/PE, treatment-related, patients (G2/G3/G4)",[7],0/0/0
same,"Dehydration, treatment-related, patients (G2/G3/G4)",[7],0/0/0
same,"Diarrhea, treatment-related, patients (G2/G3/G4)",[7],2/0/0
same,"Fatigue, treatment-related, patients (G2/G3/G4)",[7],2/0/0
same,"GI bleed, treatment-related, patients (G2/G3/G4)",[7],0/0/0
same,"Hand and Foot, treatment-related, patients (G2/G3/G4)",[7],0/0/0
same,"Infection, treatment-related, patients (G2/G3/G4)",[7],0/0/0
same,"Mucositis, treatment-related, patients (G2/G3/G4)",[7],0/0/0
same,"Nausea, treatment-related, patients (G2/G3/G4)",[7],0/0/0
same,"Neutropenia, treatment-related, patients (G2/G3/G4)",[7],0/1/0
same,"Thrombocytopenia, treatment-related, patients (G2/G3/G4)",[7],0/0/0
same,"Vomiting, treatment-related, patients (G2/G3/G4)",[7],1/0/0
same,"Weight Loss, treatment-related, patients (G2/G3/G4)",[7],1/0/0
same,"Anemia, treatment-related, patients (G2/G3/G4)",[8],0/0/0
same,"Anorexia, treatment-related, patients (G2/G3/G4)",[8],2/0/0
same,"DVT/PE, treatment-related, patients (G2/G3/G4)",[8],0/0/0
same,"Dehydration, treatment-related, patients (G2/G3/G4)",[8],0/0/0
same,"Diarrhea, treatment-related, patients (G2/G3/G4)",[8],0/1/0
same,"Fatigue, treatment-related, patients (G2/G3/G4)",[8],3/0/0
same,"GI bleed, treatment-related, patients (G2/G3/G4)",[8],0/0/0
same,"Hand and Foot, treatment-related, patients (G2/G3/G4)",[8],0/0/0
same,"Infection, treatment-related, patients (G2/G3/G4)",[8],0/0/0
same,"Mucositis, treatment-related, patients (G2/G3/G4)",[8],0/0/0
same,"Nausea, treatment-related, patients (G2/G3/G4)",[8],2/0/0
same,"Neutropenia, treatment-related, patients (G2/G3/G4)",[8],0/0/0
same,"Thrombocytopenia, treatment-related, patients (G2/G3/G4)",[8],0/0/0
same,"Vomiting, treatment-related, patients (G2/G3/G4)",[8],0/0/0
same,"Weight Loss, treatment-related, patients (G2/G3/G4)",[8],0/0/0
same,"Anemia, treatment-related, patients (G2/G3/G4)",[9],2/1/0
same,"DVT/PE, treatment-related, patients (G2/G3/G4)",[9],0/1/0
same,"Dehydration, treatment-related, patients (G2/G3/G4)",[9],2/1/0
same,"Diarrhea, treatment-related, patients (G2/G3/G4)",[9],3/2/0
same,"Fatigue, treatment-related, patients (G2/G3/G4)",[9],6/0/0
same,"GI bleed, treatment-related, patients (G2/G3/G4)",[9],0/0/0
same,"Hand and Foot, treatment-related, patients (G2/G3/G4)",[9],0/0/0
same,"Infection, treatment-related, patients (G2/G3/G4)",[9],0/2/0
same,"Mucositis, treatment-related, patients (G2/G3/G4)",[9],1/1/0
same,"Neutropenia, treatment-related, patients (G2/G3/G4)",[9],1/0/0
same,"Thrombocytopenia, treatment-related, patients (G2/G3/G4)",[9],1/0/0
same,"Vomiting, treatment-related, patients (G2/G3/G4)",[9],3/3/0
same,"Weight Loss, treatment-related, patients (G2/G3/G4)",[9],0/0/0
same,Patients with DLT,"DL6 1,700 mg once daily × 3 + sLV5FU2, six patients",None
same,"Anemia, treatment-related, patients (G2/G3/G4)",[10],0/2/0
same,"Anorexia, treatment-related, patients (G2/G3/G4)",[10],1/0/0
same,"DVT/PE, treatment-related, patients (G2/G3/G4)",[10],0/0/0
same,"Dehydration, treatment-related, patients (G2/G3/G4)",[10],1/0/0
same,"Diarrhea, treatment-related, patients (G2/G3/G4)",[10],0/0/0
same,"GI bleed, treatment-related, patients (G2/G3/G4)",[10],0/1/0
same,"Infection, treatment-related, patients (G2/G3/G4)",[10],0/0/0
same,"Mucositis, treatment-related, patients (G2/G3/G4)",[10],0/0/0
same,"Nausea, treatment-related, patients (G2/G3/G4)",[10],1/0/0
same,"Neutropenia, treatment-related, patients (G2/G3/G4)",[10],1/0/0
same,"Thrombocytopenia, treatment-related, patients (G2/G3/G4)",[10],0/1/0
same,"Vomiting, treatment-related, patients (G2/G3/G4)",[10],0/0/0
same,"Weight Loss, treatment-related, patients (G2/G3/G4)",[10],0/0/0
same,"Anemia, treatment-related, patients (G2/G3/G4)",[11],0/2/0
same,"Anorexia, treatment-related, patients (G2/G3/G4)",[11],2/0/0
same,"DVT/PE, treatment-related, patients (G2/G3/G4)",[11],0/0/0
same,"Dehydration, treatment-related, patients (G2/G3/G4)",[11],1/1/0
same,"Diarrhea, treatment-related, patients (G2/G3/G4)",[11],0/0/0
same,"Fatigue, treatment-related, patients (G2/G3/G4)",[11],0/2/0
same,"GI bleed, treatment-related, patients (G2/G3/G4)",[11],0/1/0
same,"Hand and Foot, treatment-related, patients (G2/G3/G4)",[11],0/1/0
same,"Infection, treatment-related, patients (G2/G3/G4)",[11],0/0/0
same,"Mucositis, treatment-related, patients (G2/G3/G4)",[11],0/0/0
same,"Nausea, treatment-related, patients (G2/G3/G4)",[11],2/0/0
same,"Neutropenia, treatment-related, patients (G2/G3/G4)",[11],1/0/0
same,"Thrombocytopenia, treatment-related, patients (G2/G3/G4)",[11],0/1/0
same,"Vomiting, treatment-related, patients (G2/G3/G4)",[11],0/0/0
same,"Weight Loss, treatment-related, patients (G2/G3/G4)",[11],0/0/0
same,DLT,"once-daily dose levels 1 through 6, three patients each",without any DLT
same,"MTD of vorinostat, once-daily schedule","orally once daily × 3 days every 2 weeks, in combination with sLV5FU2","1,700 mg"
same,"MTD of vorinostat, twice-daily schedule","orally twice daily × 3 days every 2 weeks, in combination with sLV5FU2",600 mg

# Source: publication PMC2931804 (Clinical cancer research : an official journal of the …, 2010)
